Assay results as given in patent US10544130B2, “Metallo-beta-lactamase inhibitors” (priority 2015, dated 2020).

test system: Pseudomonas aeruginosa PAO1 MB9798 (efflux+, IMP-1); conditions: ratio MITC95 PA 9798/MITC95 PA 9799; imipenem at 2 μg/mL
Method in brief: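 Isogenic PAO1 pair (efflux+ MB9798, efflux− MB9799, both IMP-1) tested by microbroth MIC with fixed imipenem and/or ceftazidime, usually at CLSI breakpoint, plus fixed class A/C inhibitor against AmpC. MBL inhibitor titrated; concentration restoring susceptibility recorded and fold difference between strains taken as efflux extent.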

Structure (SMILES) | Efflux ratio
NC(=O)c1ccc(-c2ccc(S(=O)(=O)N[C@@H]3CCNC3)c(S(N)(=O)=O)c2-c2nnn[nH]2)cc1 [Example 137, (R)-4′-(N-(pyrrolidin-3-yl)sulfamoyl)-3′-sulfamoyl-2′-(1H-tetrazol-5-yl)-[1,1′-biphenyl]-4-carboxamide] | 1.00
NS(=O)(=O)c1c(S(=O)(=O)N[C@@H]2CCNC2)ccc(-c2ccc3c(c2)C(=O)NC3)c1-c1nnn[nH]1 [Example 138, (R)-4-(3-oxoisoindolin-5-yl)-N1-(pyrrolidin-3-yl)-3-(1H-tetrazol-5-yl)benzene-1,2-disulfonamide] | 1.00
NS(=O)(=O)c1c(S(=O)(=O)N[C@@H]2CCNC2)ccc(-c2cccc3cn[nH]c23)c1-c1nnn[nH]1 [Example 139, (R)-4-(1H-indazol-7-yl)-N1-(pyrrolidin-3-yl)-3-(1H-tetrazol-5-yl)benzene-1,2-disulfonamide] | 1.00
NS(=O)(=O)c1c(S(=O)(=O)N[C@@H]2CCNC2)ccc(-c2cnc3ccccn23)c1-c1nnn[nH]1 [Example 140, (R)-4-(imidazo[1,2-a]pyridin-3-yl)-N1-(pyrrolidin-3-yl)-3-(1H-tetrazol-5-yl)benzene-1,2-disulfonamide] | 2.00
C[C@H]1NC(=O)O[C@H]1c1ccc(-c2ccc(S(=O)(=O)N[C@@H]3CCNC3)c(S(N)(=O)=O)c2-c2nnn[nH]2)cc1 [Example 141, 4'-((4R,5S)-4-methyl-2-oxooxazolidin-5-yl)-N4-((R)-pyrrolidin-3-yl)-2-(1H-tetrazol-5-yl)-[1,1'-biphenyl]-3,4-disulfonamide] | 1.00
Nc1nc2c(-c3ccc(S(N)(=O)=O)c(S(N)(=O)=O)c3-c3nn[nH]n3)cccc2s1 [Example 143, 4-(2-aminobenzo[d]thiazol-4-yl)-3-(2H-tetrazol-5-yl)benzene-1,2-disulfonamide] | 0.50
Nc1nc2c(-c3ccc(S(=O)(=O)NCCO)c(S(N)(=O)=O)c3-c3nn[nH]n3)cccc2s1 [Example 144, 4-(2-aminobenzo[d]thiazol-4-yl)-N1-(2-hydroxyethyl)-3-(2H-tetrazol-5-yl)benzene-1,2-disulfonamide] | 1.00
NCCNS(=O)(=O)c1ccc(-c2cccc3sc(N)nc23)c(-c2nn[nH]n2)c1S(N)(=O)=O [Example 145, 4-(2-aminobenzo[d]thiazol-4-yl)-N1-(2-aminoethyl)-3-(2H-tetrazol-5-yl)benzene-1,2-disulfonamide] | 0.50
Nc1nc2c(-c3ccc(S(=O)(=O)NC4CNC4)c(S(N)(=O)=O)c3-c3nn[nH]n3)cccc2s1 [Example 146, 4-(2-aminobenzo[d]thiazol-4-yl)-N1-(azetidin-3-yl)-3-(2H-tetrazol-5-yl)benzene-1,2-disulfonamide] | 0.50
Nc1nc2c(-c3ccc(S(=O)(=O)N4CC(N)C4)c(S(N)(=O)=O)c3-c3nn[nH]n3)cccc2s1 [Example 147, 6-((3-aminoazetidin-1-yl)sulfonyl)-3-(2-aminobenzo[d]thiazol-4-yl)-2-(2H-tetrazol-5-yl)benzenesulfonamide] | 1.00
Nc1nc2c(-c3ccc(S(=O)(=O)N4CCC(N)CC4)c(S(N)(=O)=O)c3-c3nn[nH]n3)cccc2s1 [Example 148, 3-(2-aminobenzo[d]thiazol-4-yl)-6-((4-aminopiperidin-1-yl)sulfonyl)-2-(2H-tetrazol-5-yl)benzenesulfonamide] | 2.00
Nc1nc2c(-c3ccc(S(=O)(=O)NCC4(N)CC4)c(S(N)(=O)=O)c3-c3nn[nH]n3)cccc2s1 [Example 149, 4-(2-aminobenzo[d]thiazol-4-yl)-N1-((1-aminocyclopropyl)methyl)-3-(2H-tetrazol-5-yl)benzene-1,2-disulfonamide] | 1.00
CN(C)S(=O)(=O)c1ccc(-c2cccc3sc(N)nc23)c(-c2nn[nH]n2)c1S(N)(=O)=O [Example 151, 4-(2-aminobenzo[d]thiazol-4-yl)-N1,N1-dimethyl-3-(2H-tetrazol-5-yl)benzene-1,2-disulfonamide] | 16.00
CNS(=O)(=O)c1ccc(-c2cccc3sc(N)nc23)c(-c2nn[nH]n2)c1S(N)(=O)=O [Example 152, 4-(2-aminobenzo[d]thiazol-4-yl)-N1-methyl-3-(2H-tetrazol-5-yl)benzene-1,2-disulfonamide] | 8.00
Nc1nc2c(-c3ccc(S(=O)(=O)NCC(=O)O)c(S(N)(=O)=O)c3-c3nn[nH]n3)cccc2s1 [Example 153, ((4-(2-aminobenzo[d]thiazol-4-yl)-2-sulfamoyl-3-(2H-tetrazol-5-yl)phenyl)sulfonyl)glycine] | 1.00
Nc1nc2c(-c3ccc(S(=O)(=O)NC[C@@H](N)C(=O)O)c(S(N)(=O)=O)c3-c3nn[nH]n3)cccc2s1 [Example 154, (R)-2-amino-3-((4-(2-aminobenzo[d]thiazol-4-yl)-2-sulfamoyl-3-(2H-tetrazol-5-yl)phenyl)sulfonamido) propanoic acid] | 0.50

Structure (SMILES) | Efflux ratio
CS(=O)(=O)Nc1nc2c(-c3ccc(S(=O)(=O)N4CCNCC4)c(S(N)(=O)=O)c3-c3nn[nH]n3)cccc2s1 [Example 156, 3-(2-(Methylsulfonamido)benzo[d]thiazol-4-yl)-6-(piperazin-1-ylsulfonyl)-2-(2H-tetrazol-5-yl)benzenesulfonamide] | 2.00
Nc1nc2cccc(-c3ccc(S(=O)(=O)N4CCNCC4)c(S(N)(=O)=O)c3-c3nn[nH]n3)c2[nH]1 [Example 157, 3-(2-amino-3H-benzo[d]imidazol-4-yl)-6-(piperazin-1-ylsulfonyl)-2-(2H-tetrazol-5-yl)benzenesulfonamide] | 4.00
Nc1nc2c(-c3ccc(S(=O)(=O)N4CCNCC4)c(S(N)(=O)=O)c3-c3nn[nH]n3)cccc2o1 [Example 159, 3-(2-aminobenzo[d]oxazol-4-yl)-6-(piperazin-1-ylsulfonyl)-2-(2H-tetrazol-5-yl)benzenesulfonamide] | 2.00
NS(=O)(=O)c1c(S(=O)(=O)N2CCNCC2)ccc(-c2cccc3cn[nH]c23)c1-c1nnn[nH]1 [Example 160, 3-(1H-indazol-7-yl)-6-(piperazin-1-ylsulfonyl)-2-(1H-tetrazol-5-yl)benzenesulfonamide] | 4.00
Nc1nc2c(-c3ccc(S(=O)(=O)N[C@@H]4CCNC4)c(S(N)(=O)=O)c3-c3nn[nH]n3)cccc2[nH]1 [Example 161, 4-(2-amino-1H-benzo[d]imidazol-4-yl)-N^1—((R)-pyrrolidin-3-yl)-3-(2H-tetrazol-5-yl)benzene-1,2-disulfonamide] | 0.78
Nc1nc2c(-c3ccc(S(=O)(=O)N[C@H]4CCNC4)c(S(N)(=O)=O)c3-c3nn[nH]n3)cccc2[nH]1 [Example 162, 4-(2-amino-1H-benzo[d]imidazol-4-yl)-N^1-((S)-pyrrolidin-3-yl)-3-(2H-tetrazol-5-yl)benzene-1,2-disulfonamide] | 0.87
Cn1c(N)nc2c(-c3ccc(S(=O)(=O)N[C@H]4CCNC4)c(S(N)(=O)=O)c3-c3nn[nH]n3)cccc21 [Example 163, 4-(2-amino-1-methyl-1H-benzo[d]imidazol-4-yl)-N^1-((S)-pyrrolidin-3-yl)-3-(2H-tetrazol-5-yl)benzene-1,2-disulfonamide] | 1.00
Cn1c(N)nc2c(-c3ccc(S(=O)(=O)N[C@@H]4CCNC4)c(S(N)(=O)=O)c3-c3nn[nH]n3)cccc21 [Example 164, 4-(2-amino-1-methyl-1H-benzo[d]imidazol-4-yl)-N^1-((R)-pyrrolidin-3-yl)-3-(2H-tetrazol-5-yl)benzene-1,2-disulfonamide] | 1.00
NC1CCC(c2ccc(S(N)(=O)=O)c(S(N)(=O)=O)c2-c2nnn[nH]2)CC1 (stereo not shown) [Example 165, 4-(4-aminocyclohexyl)-3-(1H-tetrazol-5-yl)benzene-1,2-disulfonamide] | 4.00
C[N+]1(C)CC[C@H](NS(=O)(=O)c2ccc(-c3cccc4[nH]c(N)nc34)c(-c3nn[n-]n3)c2S(N)(=O)=O)C1 [Example 166, (S)-5-(6-(2-amino-1H-benzo[d]imidazol-4-yl)-3-(N-(1,1-dimethylpyrrolidin-1-ium-3-yl)sulfamoyl)-2-sulfamoylphenyl)tetrazol-2-ide] | 1.00
Cn1c(N)nc2c(-c3ccc(S(=O)(=O)N[C@H]4CC[N+](C)(C)C4)c(S(N)(=O)=O)c3-c3nn[n-]n3)cccc21 [Example 167, (S)-5-(6-(2-amino-1-methyl-1H-benzo[d]imidazol-4-yl)-3-(N-(1,1-dimethylpyrrolidin-1-ium-3-yl)sulfamoyl)-2-sulfamoylphenyl)tetrazol-2-ide] | 2.00
Nc1nc2c(-c3ccc(S(=O)(=O)N[C@H]4CNC[C@H]4O)c(S(N)(=O)=O)c3-c3nnn[nH]3)cccc2[nH]1 [Example 168, 4-(2-amino-1H-benzo[d]imidazol-4-yl)-N^1-((3S,4R)-4-hydroxypyrrolidin-3-yl)-3-(1H-tetrazol-5-yl)benzene-1,2-disulfonamide] | 0.70
Nc1nc2c(-c3ccc(S(=O)(=O)N[C@H]4CNC[C@@H]4O)c(S(N)(=O)=O)c3-c3nnn[nH]3)cccc2[nH]1 [Example 169, 4-(2-amino-1H-benzo[d]imidazol-4-yl)-N^1-((3S,4S)-4-hydroxypyrrolidin-3-yl)-3-(1H-tetrazol-5-yl)benzene-1,2-disulfonamide] | 1.00
Nc1nc2c(-c3ccc(S(=O)(=O)N[C@@H]4CNC[C@@H]4O)c(S(N)(=O)=O)c3-c3nnn[nH]3)cccc2[nH]1 [Example 170, 4-(2-amino-1H-benzo[d]imidazol-4-yl)-N^1-((3R,4S)-4-hydroxypyrrolidin-3-yl)-3-(1H-tetrazol-5-yl)benzene-1,2-disulfonamide] | 1.00
Nc1nc2c(-c3ccc(S(=O)(=O)N[C@@H]4CNC[C@H]4O)c(S(N)(=O)=O)c3-c3nnn[nH]3)cccc2[nH]1 [Example 171, 4-(2-amino-1H-benzo[d]imidazol-4-yl)-N^1-((3R,4R)-4-hydroxypyrrolidin-3-yl)-3-(1H-tetrazol-5-yl)benzene-1,2-disulfonamide] | 0.50
